Assay results: patent US20190331666A1, “METHODS FOR DRUG DISCOVERY USING STEM CELL-DERIVED SCHWANN CELLS” (MEMORIAL SLOAN-KETTERING CANCER CENTER, priority 2016, published 2019)

Legend:
[1] = tested on: pyruvate levels in hESC-SCs; experiment: Pyruvate measurement in hESC-SCs; type: cell-based, human; settings: high glucose
Text: (§1) High glucose, low glucose and drug treated SCs and sensory neurons were subjected to biochemical assays for Sorbitol (abcam, ab118968), glucose (abcam, ab65333), Pyruvate (abcam, ab65342) and 2DG uptake (abcam, ab136955) measurements according to manufacturer's instructions. Data was normalizing according to cell numbers and averaged over 3-6 biological replicates.

[2] = tested on: STZ-treated C57BL6 mice; experiment: TUNEL staining of sciatic nerves of STZ-treated mice; type: in vivo; settings: oral in chow ~300 mg/kg daily
Method: (§2) All procedures were performed following NIH guidelines, and were approved by the local Institutional Animal Care and Use Committee (IACUC). 3-8 weeks old male C57BL6 mice were treated with one dose IP injection of streptozotocin (180 mg/kg, sigma, 85882) to induce pancreatic beta cell death. Blood glucose levels was measured using a standard glucometer (Freestyle Lite) in weekly intervals starting at one week post-treatment, by drawing a drop of blood from tail tip. BP treatment was initiated one week post-streptozotocin treatment. BP was mixed with standard chow at 1.63 mg/gram of chow to be administered orally at ˜300 mg/kg daily. The dose was calculated on the basis of average daily food intake (5.5 gram/day) and initial body weight (30 grams).

[3] = tested on: STZ-treated C57BL6 mice; experiment: Transmission electron microscopy of myelin in sciatic nerves of STZ-treated mice; type: in vivo; settings: oral in chow ~300 mg/kg daily
Method: as §2

[4] = tested on: high glucose treated hESC-SCs; experiment: High content screening for drugs reversing glucose-mediated SC cytotoxicity (Prestwick library); type: cell-based, human; settings: 30 mM glucose, compounds at 1 μM, 72 hours
Method: The chemical compound screening was performed using the Prestwick Chemical Library®. RFP-labeled hESC-SCs were plated in 384 well plates (1,000/well) and treated with 30 mM glucose immediately before addition of the compounds. The compounds were added at 1 μM concentration. 72 hours later, the plates were treated with DAPI for ten minutes, washed twice and fixed for total plate imaging. The number of viable cells was quantified for each well by counting the number of DAPI negative, RFP positive cells. The percentage of dead cells were calculated for each well by dividing the number of DAPI positive cells by total RFP positive cells.
Data are presented as mean±SEM and were derived from at least 3 independent experiments. Statistical analysis was performed using the Student t-test (comparing 2 groups) or ANOVA with Dunnett test (comparing multiple groups against control). Distribution of the raw data approximated normal distribution (Kolmogorov Smirnov normality test) for data with sufficient number of replicates to test for normality. Survival analysis was performed using log rank (Mantel-Cox) test. Z-scores for primary hits were calculated as Z=(x−μ)/σ. X is the migration score value and is 3 for all hit compounds. μ is the mean migration score value and a is the standard deviation for all compounds and DMSO controls

[5] = tested on: patients suffering from neuropathic pain; settings: cited from earlier work
[6] = tested on: glucose uptake in hESC-SCs; experiment: Glucose (2DG) uptake in hESC-SCs; type: cell-based, human; settings: high glucose
Text: as §1

[7] = tested on: high glucose treated hESC-SCs; experiment: Dose response validation, SC viability / cell death (LDH); type: cell-based, human
Method: To monitor the viability of SCs, cells were assayed for LDH activity using CytoTox 96 cytotoxicity assay kit (Promega, G1780). Briefly, the cells were plated in 96 well plates at 30,000 cells/cm^2. The supernatant and the cell lysate is harvested 24 hours later and assayed for LDH activity using a plate reader (490 nm absorbance). Viability was calculated by dividing the LDH signal of the lysate by total LDH signal (from lysate plus supernatant). The cells were cultured in Schwann cell medium (Sciencell, 1701) on PO/LM/FN coated dishes during the assay. For validation of the selected hit compound (Bupropion HCL, Sigma, B102), the cells were treated with various concentrations of the compound for dose response analysis. The highest non-toxic dose (0.7 μM-based on optimal sorbitol reduction and viability) was used for follow-up experiments.

[8] = tested on: STZ-treated C57BL6 mice; experiment: Mouse thermal sensitivity (hot plate) test in STZ-treated mice; type: in vivo; settings: seven and eight weeks post STZ, oral in chow ~300 mg/kg daily
Method: as §2, with “grams). Thermal nociception was assessed using the hot plate test. The hot plate (Ugo Basile 35100) consisted of a metal surface (55° C.) with a transparent plexiglass cylinder to contain the mouse. […] Typical baseline latencies are 5-10 seconds, with maximal latencies of 30 seconds.” for “grams).”

[9] = tested on: STZ-treated C57BL6 mice; experiment: Blood glucose in STZ-treated diabetic mice; type: in vivo; settings: oral in chow ~300 mg/kg daily
Method: as §2

[10] = tested on: sorbitol levels in hESC-SCs; experiment: Sorbitol measurement in hESC-SCs; type: cell-based, human; settings: high glucose treated hESC-SCs
Method: High glucose, low glucose and drug treated SCs and sensory neurons were subjected to biochemical assays for Sorbitol (abcam, ab118968), glucose (abcam, ab65333), Pyruvate (abcam, ab65342) and 2DG uptake (abcam, ab136955) measurements according to manufacturer's instructions. Data was normalizing according to cell numbers and averaged over 3-6 biological replicates. For validation of the selected hit compound (Bupropion HCL, Sigma, B102), the cells were treated with various concentrations of the compound for dose response analysis. The highest non-toxic dose (0.7 μM-based on optimal sorbitol reduction and viability) was used for follow-up experiments.

[11] = tested on: intracellular glucose levels in hESC-SCs; experiment: Intracellular glucose measurement in hESC-SCs; type: cell-based, human; settings: high glucose
Text: as §1

[12] = tested on: rodent GSK3β homologs; settings: cited from earlier work

## CC(NC(C)(C)C)C(=O)c1cccc(Cl)c1.Cl (stereo not drawn) [BP, 2-(tert-butylamino)-1-(3-chlorophenyl)propan-1-one;hydrochloride]
[1]
  levels of pyruvate: increased
[2]
  TUNEL+ apoptotic cells in the sciatic nerves: significantly fewer apoptotic cells
[3]
  percentage of damaged myelin in the sciatic nerves: significantly reduced
[4]
  enhancing the viability of high glucose treated hESC-SCs (primary screen): most potent compound
[5]
  benefit in the treatment of neuropathic pain: some benefit
[6]
  glucose uptake: without affecting
[7]; hESC-SCs
  levels inducing gradual dose-dependent toxicity: above 2 μM
[7]; high glucose treated hESC-SCs, various concentrations
  rescuing SC viability: dose-response
[8]
  response time to thermal stimulation (latency of hind paw withdrawal): significantly improved response time
[9]
  blood glucose levels: does not affect glucose levels
[10]; Homo sapiens, read-out: IC50 (dose-response in rescuing SC viability and in decreasing sorbitol levels)
  IC50: 263 nM
[10]
  highest non-toxic dose (based on optimal sorbitol reduction and viability): 0.7 µM
[10]; dose used for all further studies
  dose of maximum effect: 0.7
[11]
  intracellular glucose levels: reduced

## Cc1c[nH]c(-c2cnc(NCCNc3ccc(C#N)cn3)nc2-c2ccc(Cl)cc2Cl)n1 [CHIR99021, 6-(2-(4-(2,4-dichlorophenyl)-5-(4-methyl-1H-imidazol-2-yl)pyrimidin-2-ylamino)ethylamino)nicotinonitrile]
[12]
  IC50 values against rodent GSK3β homologs: nanomolar
